How the values were obtained:
Format in all cases: cell-based, human
[1] = system: Smad4 silenced MiaPaCa2 IκBα and S6RP phosphorylation; assay: Signaling western blot in Smad4 silenced MiaPaCa2; conditions: Smad4-siRNA MiaPaCa2 vs MiaPaCa2, 10 minutes, 0.02 ng/ml TGFβ1, 10 nM S100A8, 50 nM NT-S100A8; for effect of silenced Smad4 on S6RP phosphorylation: western blot; for effect of Smad4 silencing on inhibition of NF-κB: IκBα Ser32 western blot
Experimental: The pancreatic cancer cell lines used were: Panc1 and Suit2, donated by Prof Aldo Scarpa (University of Verona, Italy); BxPC3, from Dr Andrea Galli (University of Florence, Italy); MiaPaCa2, Capan1 and the human embryonic kidney Hek293 cell lines, supplied by the American Type Culture Collection (Manassas, VA, USA). BxPC3, Capan1 and Panc1 were cultured in RPMI (Gibco/BRL, Gaithhersburg, MD, USA) supplemented with 10% (BxPC3 and Panc1) and 20% (Capan1) fetal calf serum (FCS) (Gibco/BRL), 1% L-glutamine (Gibco/BRL) and 0.1% gentamycin (Gibco/BRL). MiaPaCa2 and Hek293 were cultured in DMEM (Gibco/BRL) supplemented with 10% FCS, 2% L-glutamine and 0.1% Gentamycin. BxPC3 cells were transfected with the expression vector pBK-cytomegalovirus (CMV)-SMAD4/DPC4, as previously described. One SMAD4/DPC4-expressing clone (BxPC3-SMAD4+) was used for the experiments. Smad4 silencing of MiaPaCa2 cells was performed as previously described.
(§1) Five million cells were seeded in Petri dishes (ø 10 cm) and cultured for 24 hours in their respective complete media prior to starting the experiments. Cells remained non-stimulated (negative control) or were stimulated with 50 mU insulin (positive control) (Insuman Rapid, Sanofi-Aventis, Deutschland, GmbH) for 10 min; in parallel, experimental cells were stimulated with 50 nM NT-S100A8, 0,02 ng/ml TGFβ1 (ProSpec-Tany TechnoGene), 10 nM S100A8 and 10 nM S100A9 alone or combined for 10 min. Following stimulations, Petri dishes were immediately transferred into an ice bath, and the cells were washed twice with cold PBS, re-suspended in 100 μl of cold lysis buffer [20 mM Tris–HCl, pH 7.5, 150 mM NaCl, 1 mM EDTA, 1% Triton-X 100, 50 mM NaF, 10 mM Na4P2O7,1 mM Na3VO4, and 10% protease inhibitor cocktail (Sigma Aldrich SRL, Milano, Italy)]. Lysates were centrifuged for 10 min at 14,000 rpm at 4°C and, in the supernatants, total proteins were measured using the Bio-Rad protein assay (Bio-Rad Laboratories, Milano, Italy). Each experiment was performed at least in triplicate.
(§2) For each sample, 40 μg proteins were electrophoresed through 4–12% NuPAGE®NovexBis-Tris SDS–PAGE Gel or 3-8% NuPAGE®NovexTris-Acetate SDS–PAGE Gel (Invitrogen S.R.L., Life Technologies, Monza, Italy) and electrophoretically transferred to Nitrocellulose Membrane (iBlot® Transfer Stack, Invitrogen S.R.L.) by means of the iBlotTMDry Blotting System (Invitrogen S.R.L.). Following incubation for 1 hour in a blocking buffer [5% low fat powder milk re-suspended in PBS-T (PBS with 0.1% Tween-20)], membranes were incubated overnight at 4°C with the primary antibodies [antiphospho IkB-α (Ser^32) (Santa Cruz Biotechnology, Inc., Santa Cruz, CA, USA); anti-phospho-Akt (Ser^473), anti-phospho-Akt (Thr^308), anti-Akt and anti-phospho-S6 Ribosomal Protein (Ser^235/236), anti-cleaved Caspase-3, anti-phospho-Stat3 Tyr^705, anti-β-actin, anti-phospho mTOR (Ser^2448, Ser^2481) (Cell Signaling Technology, Danvers, MA, USA); anti-RAGE (R&D Systems, Minneapolis, MN, USA) ] diluted 1:5000 (β-actin), 1:2000 (mTOR, cleaved Caspase-3, Stat3) or 1:3000 (all the others) in the blocking buffer. The blots, washed three times in PBS-T for 15 min, were incubated with […] anti-rabbit (Cell Signaling Technology) or anti-goat (Sigma Aldrich) secondary antibodies and then washed three times in PBS-T for 15 min and developed with the ECL Advance Western Blot Detection Kit (GE Healthcare Technologies, Milan, Italy).

BxPC3 N-Cadherin = assay: N-cadherin immunocytochemistry, BxPC3; conditions: vs untreated cells
Experimental: In order to investigate immunocytochemical reactions, control and stimulated cells were formalin-fixed and paraffin embedded before obtaining […] sections from each cell block. All immunocytochemical staining was performed automatically (Bondt—maX, Menarini, Florence, Italy) with primary antibodies: E-cadherin (DakoCytomation, Glostrup, Denmark) (1:200), N-cadherin (DakoCytomation) (1:100), Twist1 (Novocastra, Newcastle-upon-Tyne, UK)(1:600). Sections were then lightly counterstained with hematoxylin. E-cadherin and N-cadherin immunoreactions were defined as immunoreactions detectable in the membrane while Twist was defined as a positive nuclear staining. At least three independent sets of experiments were performed in each experimental condition.

[2] = system: IκBα phosphorylation at Ser32; assay: NF-κB signaling, western blot of IκBα phosphorylation in PDAC cell lines; conditions: BxPC3, Capan1, MiaPaCa2, Panc1, 10 min, 10 nM S100A8, S100A9, S100A8/A9, 50 nM NT-S100A8, 0.02 ng/ml TGFβ1
Experimental: as §1, §2

NT-S100A8: 14 N-terminal aminoacid peptide of S100A8, isolated from PDAC tissues (MLTELEKALNSIID; UniProt P05109 1-14, looked up, fragment)
effect of silenced Smad4 on S6RP phosphorylation [1]: markedly reduced S6RP phosphorylation
N-Cadherin membranous immunostaining (BxPC3 N-Cadherin): less marked than in control cells
IκBα phosphorylation (Ser32) [2]: reduced IκBα phosphorylation in Capan1, MiaPaCa2 and Panc1, not in BxPC3

S100A8: inflammatory calcium binding protein S100A8 (ProSpec-Tany TechnoGene)
effect of Smad4 silencing on inhibition of NF-κB [1]: reduced the inhibition of NF-κB
effect of silenced Smad4 on S6RP phosphorylation [1]: markedly reduced S6RP phosphorylation
N-Cadherin membranous immunostaining (BxPC3 N-Cadherin): less marked than in control cells
IκBα phosphorylation (Ser32) [2]: reduced IκBα phosphorylation in Capan1, MiaPaCa2 and Panc1, not in BxPC3

S100A9: inflammatory calcium binding protein S100A9, S100A8 binding partner
N-Cadherin membranous immunostaining (BxPC3 N-Cadherin): less marked than in control cells
IκBα phosphorylation (Ser32) [2]: reduced IκBα phosphorylation in Capan1, MiaPaCa2 and Panc1, not in BxPC3

TGFβ1: transforming growth factor beta 1 (ProSpec-Tany TechnoGene)
effect of Smad4 silencing on inhibition of NF-κB [1]: reduced the inhibition of NF-κB
effect of silenced Smad4 on S6RP phosphorylation [1]: markedly reduced S6RP phosphorylation
N-Cadherin membranous immunostaining (BxPC3 N-Cadherin): less marked than in control cells
IκBα phosphorylation (Ser32) [2]: no significant effects
